Experiment [1] deals with Human α2δ-1 subunit of Cav2.2 calcium channel (Homo sapiens (Human), UniProt P54289). The experiment can be described thus: Binding Assay to Human α2δ-1 Subunit of Cav2.2 Calcium Channel. To be noted: human α2δ-1 enriched membranes, 15 nM [3H]-Gabapentin, read-out: Ki(nM) alpha2delta Hum. The gist of the method: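 Radioligand filtration binding at the α2δ-1 subunit, test compound at five concentrations; nonspecific binding defined with 10 μM pregabalin. Incubated 60 min at 27 °C, stopped by GF/C filtration (0.5% PEI presoaked) with ice-cold 50 mM Tris-HCl pH 7.4 washes; bound radioactivity counted by scintillation.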
Chain of Human α2δ-1 subunit of Cav2.2 calcium channel (P54289 25-1103): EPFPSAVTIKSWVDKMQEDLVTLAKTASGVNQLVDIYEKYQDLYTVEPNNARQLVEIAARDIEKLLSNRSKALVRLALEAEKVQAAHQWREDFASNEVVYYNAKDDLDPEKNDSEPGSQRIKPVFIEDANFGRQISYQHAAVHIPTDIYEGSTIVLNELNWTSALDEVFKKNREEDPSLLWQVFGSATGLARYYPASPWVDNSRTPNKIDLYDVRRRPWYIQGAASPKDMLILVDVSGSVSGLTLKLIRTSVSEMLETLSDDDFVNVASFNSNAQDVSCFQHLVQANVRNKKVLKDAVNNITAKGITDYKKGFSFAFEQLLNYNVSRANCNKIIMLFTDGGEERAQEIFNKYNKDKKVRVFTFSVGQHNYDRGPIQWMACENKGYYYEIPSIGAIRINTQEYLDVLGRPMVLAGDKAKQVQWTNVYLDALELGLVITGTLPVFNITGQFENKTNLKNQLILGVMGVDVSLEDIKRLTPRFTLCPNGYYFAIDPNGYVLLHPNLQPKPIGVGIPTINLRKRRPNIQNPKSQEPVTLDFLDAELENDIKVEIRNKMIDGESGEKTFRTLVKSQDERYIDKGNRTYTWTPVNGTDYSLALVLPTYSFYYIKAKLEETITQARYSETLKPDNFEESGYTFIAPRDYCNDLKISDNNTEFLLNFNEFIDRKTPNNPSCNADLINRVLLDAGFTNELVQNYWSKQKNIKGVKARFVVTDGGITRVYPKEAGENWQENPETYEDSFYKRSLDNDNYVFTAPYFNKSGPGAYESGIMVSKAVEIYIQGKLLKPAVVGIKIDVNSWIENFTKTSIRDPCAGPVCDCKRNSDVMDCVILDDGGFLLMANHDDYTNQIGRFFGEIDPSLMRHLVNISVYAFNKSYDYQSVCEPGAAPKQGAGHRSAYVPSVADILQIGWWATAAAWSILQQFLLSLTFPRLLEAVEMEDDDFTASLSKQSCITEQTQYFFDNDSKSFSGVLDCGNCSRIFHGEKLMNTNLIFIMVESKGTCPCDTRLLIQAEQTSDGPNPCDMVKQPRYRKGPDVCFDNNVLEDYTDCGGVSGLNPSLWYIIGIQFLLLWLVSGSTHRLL

In experiment [2] the target is Human norepinephrine transporter (NET) (Homo sapiens (Human), UniProt P23975). The experiment can be described thus: Binding Assay to Human Norepinephrine Transporter (NET). The conditions noted are these: Table 2, dual compounds; human NET enriched membranes, 5 nM [3H]-Nisoxetin; read-out: Ki(nM) NET Hum. The gist of the method:
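hNET-enriched membranes (5 μg) incubated with 5 nM [3H]-nisoxetine in Tris pH 7.4 containing 120 mM NaCl and 5 mM KCl, with compound at five concentrations, 60 min at 4 °C. Non-specific binding with 10 μM desipramine; filtration and scintillation counting.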

Like-named read-outs stand apart in the source and are kept apart here.

Chain of Human norepinephrine transporter (NET) (P23975 whole entry): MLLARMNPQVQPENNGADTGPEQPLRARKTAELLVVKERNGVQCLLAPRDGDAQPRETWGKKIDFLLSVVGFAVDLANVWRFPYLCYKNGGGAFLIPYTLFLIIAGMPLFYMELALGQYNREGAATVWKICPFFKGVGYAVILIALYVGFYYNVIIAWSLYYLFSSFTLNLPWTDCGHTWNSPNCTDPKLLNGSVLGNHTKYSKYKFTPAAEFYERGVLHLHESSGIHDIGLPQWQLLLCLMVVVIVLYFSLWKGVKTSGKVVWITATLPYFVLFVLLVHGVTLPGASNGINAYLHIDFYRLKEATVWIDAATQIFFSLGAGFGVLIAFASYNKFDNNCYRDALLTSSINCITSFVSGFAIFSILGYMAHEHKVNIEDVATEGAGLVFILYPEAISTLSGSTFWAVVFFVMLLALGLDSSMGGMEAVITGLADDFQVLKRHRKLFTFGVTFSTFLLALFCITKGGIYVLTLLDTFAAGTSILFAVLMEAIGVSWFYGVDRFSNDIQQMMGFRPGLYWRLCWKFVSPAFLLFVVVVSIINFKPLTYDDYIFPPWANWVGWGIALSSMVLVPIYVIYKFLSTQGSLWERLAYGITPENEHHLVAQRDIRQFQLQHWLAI

For the compound `CNCC[C@H](Oc1ccc(CN2CCN(C)c3ncccc3C2=O)cc1)c1cccc(F)c1` [Example 151, (S)-4-(4-(1-(3-fluorophenyl)-3-(methylamjno)propoxy)benzyl)-1-methyl-1,2,3,4-tetrahydro-5H-pyrido[2,3-e][1,4]diazepin-5-one], the Ki was 100 to 500 nM in experiment [1] (Table 1); 100 to 500 nM in experiment [1] (Table 2, dual compounds); less than 100 nM in experiment [2].
On to `CNCC[C@H](Oc1ccc(CN2CCN(C)c3ncccc3C2=O)cc1)c1cccs1` [Example 90, (S)-1-methyl-4-(4-(3-(methylamino)-1-(thiophen-2-yl)propoxy)benzyl)-1,2,3,4-tetrahydro-5H-pyrido[2,3-e][1,4]diazepin-5-one], for which the Ki in experiment [1] (Table 1) is less than 100 nM; in experiment [1] (Table 2, dual compounds) it was less than 100 nM; in experiment [2], 100 to 500 nM.
As to `CNCCC(Oc1cccc(CN2CCN(C)c3ccccc3C2)c1)c1cccs1` (stereo not drawn) [Example 1, N-methyl-3-(3-((1-methyl-1,2,3,5-tetrahydro-4H-benzo[e][1,4]diazepin-4-yl)methyl)phenoxy)-3-(thiophen-2-yl)propan-1-amine], the Ki in experiment [1] (Table 1) fell in the range of 100 to 500 nM; in experiment [1] (Table 2, dual compounds) it was 100 to 500 nM; in experiment [2] it was 500 to 1000 nM.
As for `CNCC[C@H](Oc1ccc(CN2CCN(C)c3cnccc3C2=O)cc1)c1cccs1` [Example 96, (S)-1-methyl-4-(4-(3-(methylamino)-1-(thiophen-2-yl)propoxy)benzyl)-1,2,3,4-tetrahydro-5H-pyrido[3,4-e][1,4]diazepin-5-one], the Ki in experiment [1] (Table 1) fell in the range of 100 to 500 nM; in experiment [1] (Table 2, dual compounds), 100 to 500 nM; in experiment [2], 100 to 500 nM.
Turning to `CNCC[C@H](Oc1ccc(CN2CCN(C)c3ncccc3C2=O)c(C)c1)c1ccccc1` [Example 114, (S)-1-methyl-4-(2-methyl-4-(3-(methylamino)-1-phenylpropoxy)benzyl)-1,2,3,4-tetrahydro-5H-pyrido[2,3-e][1,4]diazepin-5-one], the Ki in experiment [1] (Table 1) lay in the range of 100 to 500 nM; in experiment [1] (Table 2, dual compounds) it was 100 to 500 nM; in experiment [2] it was 100 to 500 nM.
In the case of `CNCC[C@H](Oc1ccc(CN2CCN(C)c3ncccc3C2=O)c(F)c1)c1ccccc1F` [Example 152, (S)-4-(2-fluoro-4-(1-(2-fluorophenyl)-3-(methylamino)propoxy)benzyl)-1-methyl-1,2,3,4-tetrahydro-5H-pyrido[2,3-e][1,4]diazepin-5-one], the Ki is less than 100 nM in experiment [1] (Table 1); less than 100 nM in experiment [1] (Table 2, dual compounds); less than 100 nM in experiment [2].
With `CNCC[C@H](Oc1cccc(N2CCN(C)c3nc(N)ccc3C2=O)c1)c1cccs1` [Example 83, (S)-8-amino-1-methyl-4-(3-(3-(methylamino)-1-(thiophen-2-yl)propoxy)phenyl)-1,2,3,4-tetrahydro-5H-pyrido[2,3-e][1,4]diazepin-5-one], the Ki in experiment [1] (Table 1) was 100 to 500 nM; in experiment [1] (Table 2, dual compounds), 100 to 500 nM; in experiment [2], 100 to 500 nM.
On to `CNCC[C@H](Oc1ccc(CN2CCN(C)c3nc(N)ccc3C2=O)c(Cl)c1)c1ccccc1` [Example 138, (S)-8-amino-4-(2-chloro-4-(3-(methylamino)-1-phenylpropoxy)benzyl)-1-methyl-1,2,3,4-tetrahydro-5H-pyrido[2,3-e][1,4]diazepin-5-one], for which the Ki in experiment [1] (Table 1) was less than 100 nM; in experiment [1] (Table 2, dual compounds), less than 100 nM; in experiment [2], less than 100 nM.
`CNCC[C@@H](Oc1cccc(N2CCN(C(C)C)CCC2=O)c1)c1cccs1` [Example 67, (R)-1-isopropyl-4-(3-(3-(methylamino)-1-(thiophen-2-yl)propoxy)phenyl)-1,4-diazepan-5-one]: the Ki in experiment [1] (Table 1) was in the range of 100 to 500 nM; in experiment [1] (Table 2, dual compounds) it was 100 to 500 nM; in experiment [2], 500 to 1000 nM.
For the compound `CNCCC(Oc1ccc(CN2CCN(C)c3nc(C)ccc3C2=O)cc1)c1ccccc1` (stereo not drawn) [Example 110, 1,8-Dimethyl-4-(4-(3-(methylamino)-1-phenylpropoxy)benzyl)-1,2,3,4-tetrahydro-5H-pyrido[2,3-e][1,4]diazepin-5-one], the Ki in experiment [1] (Table 1) is 500 to 3000 nM; in experiment [1] (Table 2, dual compounds), 500 to 3000 nM; in experiment [2], less than 100 nM.
Consider `CNCC[C@H](Oc1ccc(CN2CCN(C)c3ncccc3C2=O)c(F)c1)c1cccs1` [Example 108, (S)-4-(2-fluoro-4-(3-(methylamino)-1-(thiophen-2-yl)propoxy)benzyl)-1-methyl-1,2,3,4-tetrahydro-5H-pyrido[2,3-e)[1,4]diazepin-5-one], for which the Ki is less than 100 nM in experiment [1] (Table 1); less than 100 nM in experiment [1] (Table 2, dual compounds); 100 to 500 nM in experiment [2].
In the case of `CNCC[C@H](Oc1ccc(CN2CCN(C)c3nc(N)ccc3C2=O)c(F)c1)c1ccccc1` [Example 137, (S)-8-amino-4-(2-fluoro-4-(3-(methylamino)-1-phenylpropoxy)benzyl)-1-methyl-1,2,3,4-tetrahydro-5H-pyrido[2,3-e][1,4]diazepin-5-one], the Ki in experiment [1] (Table 1) is 100 to 500 nM; in experiment [1] (Table 2, dual compounds), 100 to 500 nM; in experiment [2], less than 100 nM.
With `CNCC[C@H](Oc1ccc(CN2CCN(C)c3ncccc3C2=O)c(Cl)c1)c1ccccc1` [Example 141, (S)-(2-chloro-4-(3-(methylamino)-1-phenylpropoxy)benzyl)-1-methyl-1,2,3,4-telrahydro-5H-pyrido[2,3-e][1,4]diazepin-5-one], the Ki in experiment [1] (Table 1) was less than 100 nM; in experiment [1] (Table 2, dual compounds), less than 100 nM; in experiment [2] it was less than 100 nM.
As to `CNCC[C@H](Oc1ccc(CN2CCN(C)c3ncc(F)cc3C2=O)c(F)c1)c1ccccc1` [Example 143, (S)-7-fluoro-4-(2-fluoro-4-(3-(methylamino)-1-phenylpropoxy)benzyl)-1-methyl-1,2,3,4-tetrahydro-5H-pyrido[2,3-e][1,4]diazepin-5-one], the Ki in experiment [1] (Table 1) is 100 to 500 nM; in experiment [1] (Table 2, dual compounds), 100 to 500 nM; in experiment [2], less than 100 nM.
For `CNCCC(OCc1cccc(N2CCN(C)CCC2=O)c1)c1cccs1` (stereo not drawn) [Example 84, 1-Methyl-4-(3-((3-(methylamino)-1-(thiophen-2-yl)propoxy)methyl)phenyl)-1,4-diazepan-5-one], the Ki in experiment [1] (Table 1) is 500 to 3000 nM; in experiment [1] (Table 2, dual compounds), 500 to 3000 nM; in experiment [2] it was 100 to 500 nM.

Source of the values: patent US11401270B2, “Alcoxyamino derivatives for treating pain and pain related conditions” (ESTEVE PHARMACEUTICALS, S.A., priority 2017, dated 2022).
